In patent publication US9212168B2 (priority 2011, dated 2015):

What was measured:
[1] = molecular target: HCV genotype 1b replicon; test: HCV genotype 1b replicon assay (Renilla luciferase readout); type: cell-based, hepatitis C virus; settings: for Genotype 1b: HCV genotype 1b replicon; for EC50: Hepatitis C virus, read-out: Genotype 1b
Method in brief: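 Reported as pEC50 derived from a 4-parameter fit of Renilla luciferase activity against concentration. Replicon cells (APC144, Huh7 background) were exposed to compound for 48 h in G418-free medium with final 0.5% DMSO, after seeding at 10,000 cells/well and 4 h adherence.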

[2] = tested on: HCV genotype 1a replicon; test: HCV genotype 1a replicon assay (NS3 protease activity readout); type: cell-based, hepatitis C virus; settings: for Genotype 1a: HCV genotype 1a replicon; for EC50: Hepatitis C virus, read-out: Genotype 1a, HCV genotype 1a replicon
Method in brief: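 EC50 values came from a 4-parameter robust fit of fluorescence (ex 340, em 509 nm) produced by NS3-specific protease in lysates, assayed with 15 μM FRET substrate for 20 min at 37° C, after 48 or 72 hours of compound exposure (0.5% DMSO) of Huh7.5-derived APC89 genotype 1a replicon cells.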

`COC(=O)N[C@H](C(=O)N1C[C@@H](C)C[C@H]1c1nc(-c2ccc(-c3ccc(C(=O)Nc4ccc(N5CCN(C(=O)C(C)(C)C)C[C@H]5C)nc4)cc3)cc2)c(Cl)[nH]1)C1CCOCC1` [Example 22-10] was tested, and the “Genotype 1b” value [1] was “D (D represents pEC50>10 (EC50<0.1 nM))” and the “Genotype 1a” value [2] was “D (D represents pEC50>10 (EC50<0.1 nM))”.

For `COC(=O)N[C@H](C(=O)N1C[C@@H](OC)C[C@H]1c1nc(-c2ccc(-c3cc(Cl)c(NC(=O)c4ccc(N5C[C@H](C)N(C(=O)C(C)(C)C)C[C@H]5C)nc4)cc3OC(F)(F)F)cc2)c[nH]1)C1CCOCC1` [Example 28-7], the “Genotype 1b” value [1] was “D (D represents pEC50>10 (EC50<0.1 nM))” and the “Genotype 1a” value [2] was “D (D represents pEC50>10 (EC50<0.1 nM))”.

`C[C@H]1C[C@@H](c2nc(-c3ccc(-c4cc(Cl)c(NC(=O)c5ccc(N6CCN(C(=O)C(C)(C)C)C[C@H]6C)nc5)cc4OC(F)(F)F)cc3)c[nH]2)N(C(=O)[C@@H](c2ccccc2)N2CCCCC2)C1` [Example 13-1] gave an EC50 [1] of less than 0.1 nM and an EC50 [2] of less than 0.1 nM.

`COC(=O)NC(C(=O)N1C[C@@H](C)C[C@H]1c1nc(-c2ccc(-c3cc(Cl)c(NC(=O)c4ccc(N5CCN(C(=O)C(C)(C)C)C[C@H]5C)nc4)cc3OC(F)(F)F)cc2)c[nH]1)C1CCCOC1` (stereo partly drawn) [Example 13-38] gave an EC50 [1] of less than 0.1 nM and an EC50 [2] of less than 0.1 nM.

In the case of `COC(=O)N[C@H](C(=O)N1C[C@@H](C)C[C@H]1c1nc(-c2ccc(-c3cc(F)c(NC(=O)c4ccc(N5CCN(C(=O)[C@H]6CC6(C)C)C[C@H]5C)nc4)cc3OC(F)(F)F)cc2)c[nH]1)C(C)C` [Example 1-10], the “Genotype 1b” value [1] is reported as “D (D represents pEC50>10 (EC50<0.1 nM))” and the “Genotype 1a” value [2] is reported as “D (D represents pEC50>10 (EC50<0.1 nM))”.

In the case of `COC(=O)N[C@H](C(=O)N1C[C@@H](C#N)C[C@H]1c1nc(-c2ccc(-c3cc(Cl)c(NC(=O)c4ccc(N5CCN(C(=O)C(C)(C)C)C[C@H]5C)nc4)cc3OC(F)(F)F)cc2)c[nH]1)C(C)C` [Example 15-11], the EC50 [1] is reported as less than 0.1 nM and the EC50 [2] is reported as less than 0.1 nM.

Work on `COC(=O)N[C@H](C(=O)N1C[C@@H](SC)C[C@H]1c1nc(-c2ccc(-c3ccc(C(=O)Nc4ccc(N5CCN(C(=O)[C@]6(C)CCCN6C(=O)[C@@H](NC(=O)OC)C(C)C)C[C@H]5C)nc4)cc3OC(F)(F)F)cc2)c[nH]1)C(C)C` [Example 6-9] yielded an EC50 [1] of less than 0.1 nM and an EC50 [2] of less than 0.1 nM.

For `COC(=O)NC(C(=O)N1CC(C)CC1c1nc(-c2ccc(-c3cc(F)c(NC(=O)c4ccc(N5CCN(C(=O)C6CC6(F)F)CC5C)nc4)cc3C(F)(F)F)cc2)c[nH]1)C(C)C` (mixture of isomers) [Example 1-53], the “Genotype 1b” value [1] was “D (D represents pEC50>10 (EC50<0.1 nM))” and the “Genotype 1a” value [2] was “D (D represents pEC50>10 (EC50<0.1 nM))”.

Molecule `COC(=O)N[C@H](C(=O)N1C[C@@H](C)C[C@H]1c1nc(-c2ccc(-c3cc(Cl)c(NC(=O)c4ccc(N5C[C@H](C)N(C(=O)c6c[nH]cn6)C[C@H]5C)nc4)cc3C(F)(F)F)cc2)c[nH]1)C(C)C` [Example 3, [(S)-1-((2S,4S)-2-{4-[5′-Chloro-4′-({6-[(2R,5S)-4-(1H-imidazole-4-carbonyl)-2,5-dimethyl-piperazin-1-yl]-pyridine-3-carbonyl}-amino)-2′-trifluoromethyl-biphenyl-4-yl]-1H-imidazol-2-yl}-4-methyl-pyrrolidine-1-carbonyl)-2-methyl-propyl]-carbamic acid methyl ester] has an EC50 [1] of less than 0.1 nM and an EC50 [2] of less than 0.1 nM.

With `COCC(=O)N1CCC[C@@]1(C)C(=O)N1C[C@@H](C)N(c2ccc(NC(=O)c3ccc(-c4ccc(-c5c[nH]c([C@@H]6C[C@H](C)CN6C(=O)[C@@H](NC(=O)OC)C(C)C)n5)cc4)c(OC(F)(F)F)c3)cn2)C[C@@H]1C` [Example 4-8] the “Genotype 1b” value [1] was “D (D represents pEC50>10 (EC50<0.1 nM))” and the “Genotype 1a” value [2] was “D (D represents pEC50>10 (EC50<0.1 nM))”.

With `COC(=O)N[C@H](C(=O)N1C[C@@H](N(C)C)C[C@H]1c1nc(-c2ccc(-c3ccc(NC(=O)c4ccc(N5CCN(C(=O)[C@]6(C)CCCN6C(C)=O)C[C@H]5C)nc4)cc3)cc2)c[nH]1)C(C)C` [Example 2-2] the “Genotype 1b” value [1] was “C (C represents pEC50 between and 9 and about 10, (EC50 between 1 nM and 0.1 nM))” and the “Genotype 1a” value [2] was “C (C represents pEC50 between and 9 and about 10, (EC50 between 1 nM and 0.1 nM))”.

For `CNC(=O)N1C[C@@H](C)N(c2ccc(C(=O)Nc3cc(C(F)(F)F)c(-c4ccc(-c5c[nH]c([C@@H]6C[C@H](C)CN6C(=O)[C@@H](NC(=O)OC)C(C)C)n5)cc4)cc3Cl)cn2)C[C@@H]1C` [Example 1-12], the “Genotype 1b” value [1] was “D (D represents pEC50>10 (EC50<0.1 nM))” and the “Genotype 1a” value [2] was “D (D represents pEC50>10 (EC50<0.1 nM))”.

For `COC(=O)N[C@H](C(=O)N1C[C@@H](OC)C[C@H]1c1nc(-c2ccc(-c3ccc(C(=O)Nc4ccc(N5CCN(C(=O)C(C)(C)C)C[C@H]5C)nc4)cc3)cc2)c[nH]1)C1CCOCC1` [Example 22-13], the “Genotype 1b” value [1] was “D (D represents pEC50>10 (EC50<0.1 nM))” and the “Genotype 1a” value [2] was “D (D represents pEC50>10 (EC50<0.1 nM))”.

`CNC(=O)N1CCN(c2ccc(C(=O)Nc3cc(C(F)(F)F)c(-c4ccc(-c5c[nH]c([C@@H]6C[C@H](C)CN6C(=O)[C@@H](NC(=O)OC)C(C)C)n5)cc4)cc3F)cn2)[C@H](C)C1` [Example 1-9] was tested, and the “Genotype 1b” value [1] was “D (D represents pEC50>10 (EC50<0.1 nM))” and the “Genotype 1a” value [2] was “D (D represents pEC50>10 (EC50<0.1 nM))”.

`COC(=O)N[C@H](C(=O)N1C[C@@H](C)C[C@H]1c1nc(-c2ccc(-c3ccc(C(=O)Nc4ccc(N5C[C@H](C)N(C(=O)[C@H]6CCCN6C(=O)NC(C)C)C[C@H]5C)nc4)cc3OC(F)(F)F)cc2)c[nH]1)C(C)C` [Example 4-20] was tested, and the “Genotype 1b” value [1] was “D (D represents pEC50>10 (EC50<0.1 nM))” and the “Genotype 1a” value [2] was “C (C represents pEC50 between and 9 and about 10, (EC50 between 1 nM and 0.1 nM))”.

`COC(=O)N[C@H](C(=O)N1C[C@@H](C)C[C@H]1c1nc(-c2ccc(-c3cc(Cl)c(NC(=O)c4ccc(N5C[C@H](C)N(C(=O)c6c[nH]cn6)C[C@H]5C)nc4)cc3OC(F)(F)F)cc2)c[nH]1)C(C)C` [Example 1-19] was tested, and the “Genotype 1b” value [1] was “D (D represents pEC50>10 (EC50<0.1 nM))” and the “Genotype 1a” value [2] was “D (D represents pEC50>10 (EC50<0.1 nM))”.

With `COC(=O)N[C@H](C(=O)N1C[C@@H](C)C[C@H]1c1nc(-c2ccc(-c3cc(F)c(NC(=O)c4ccc(N5CCN(C(=O)C(C)(C)CO)C[C@H]5C)nc4)cc3OC(F)(F)F)cc2)c[nH]1)C(C)C` [Example 1-101] the “Genotype 1b” value [1] was “D (D represents pEC50>10 (EC50<0.1 nM))” and the “Genotype 1a” value [2] was “D (D represents pEC50>10 (EC50<0.1 nM))”.

With `COC(=O)N[C@H](C(=O)N1C[C@@H](C)C[C@H]1c1nc(-c2ccc(-c3ccc(C(=O)Nc4ccc(N5CCN(C(=O)[C@]6(C)CCCN6C(=O)[C@@H](NC(=O)OC)C(C)C)C[C@H]5C)nc4)cc3)cc2)c[nH]1)C(C)C` [Example 4-2] the “Genotype 1b” value [1] was “D (D represents pEC50>10 (EC50<0.1 nM))” and the “Genotype 1a” value [2] was “D (D represents pEC50>10 (EC50<0.1 nM))”.

`COC(=O)N[C@H](C(=O)N1C[C@@H](C)C[C@H]1c1nc(-c2ccc(-c3cc(Cl)c(NC(=O)c4ccc(N5CCN(C(=O)N(C)OC)C[C@H]5C)nc4)cc3OC(F)(F)F)cc2)c[nH]1)C(C)C` [Example 12-1] was tested, and the EC50 [1] was less than 0.1 nM and the EC50 [2] was less than 0.1 nM.

For `COC(=O)N[C@H](C(=O)N1C[C@@H](C)C[C@H]1c1nc(-c2ccc(-c3cc(F)c(NC(=O)c4ccc(N5CCN(C(=O)C6CC6)C[C@H]5C)nc4)cc3OC(F)(F)F)cc2)c[nH]1)C(C)C` [Example 1-3], the “Genotype 1b” value [1] was “D (D represents pEC50>10 (EC50<0.1 nM))” and the “Genotype 1a” value [2] was “D (D represents pEC50>10 (EC50<0.1 nM))”.

`COC(=O)N[C@H](C(=O)N1C[C@@H](C)C[C@H]1c1nc(-c2ccc(-c3cc(F)c(NC(=O)c4ccc(N5CCN(C(=O)C(C)(C)C)C[C@H]5C)nc4)cc3Cl)cc2)c[nH]1)C(C)C` [Example 5-6] showed an EC50 [1] of less than 0.1 nM and an EC50 [2] of 0.1 to 1 nM.

`COCC(=O)N1CCC[C@@]1(C)C(=O)N1CCN(c2ccc(NC(=O)c3ccc(-c4ccc(-c5c[nH]c([C@@H]6C[C@H](C)CN6C(=O)[C@@H](NC(=O)OC)C(C)C)n5)cc4)c(OC(F)(F)F)c3)cn2)[C@H](C)C1` [Example 4-4] was tested, and the “Genotype 1b” value [1] was “D (D represents pEC50>10 (EC50<0.1 nM))” and the “Genotype 1a” value [2] was “D (D represents pEC50>10 (EC50<0.1 nM))”.

With `COC(=O)N[C@H](C(=O)N1C[C@@H](C)C[C@H]1c1nc(-c2ccc(-c3cc(Cl)c(NC(=O)c4ccc(N5CCN(C(=O)C(C)(C)CO)C[C@H]5C)nc4)cc3OC(F)(F)F)cc2)c[nH]1)[C@H](C)O` [Example 13-17] the EC50 [1] was less than 0.1 nM and the EC50 [2] was less than 0.1 nM.

`COC(=O)N[C@H](C(=O)N1C[C@@H](OC)C[C@H]1c1nc(-c2ccc(-c3cc(Cl)c(NC(=O)c4ccc(N5CCN(C(=O)C(C)(C)C)C[C@H]5C)nc4)cc3OC(F)(F)F)cc2)c[nH]1)[C@H](C)O` [Example 16-2] was tested, and the “Genotype 1b” value [1] was “D (D represents pEC50>10 (EC50<0.1 nM))” and the “Genotype 1a” value [2] was “D (D represents pEC50>10 (EC50<0.1 nM))”.

`COC(=O)N[C@H](C(=O)N1C[C@@H](O)C[C@H]1c1nc(-c2ccc(-c3cc(F)c(NC(=O)c4ccc(N5CCN(C(=O)C(C)(C)CO)C[C@H]5C)nc4)cc3OC(F)(F)F)cc2)c[nH]1)C(C)C` [Example 26-7] was tested, and the “Genotype 1b” value [1] was “D (D represents pEC50>10 (EC50<0.1 nM))” and the “Genotype 1a” value [2] was “C (C represents pEC50 between and 9 and about 10, (EC50 between 1 nM and 0.1 nM))”.

`COC(=O)N[C@H](C(=O)N1C[C@@H](OC)C[C@H]1c1nc(-c2ccc(-c3cc(F)c(NC(=O)c4ccc(N5CCN(C(=O)C(C)(C)C)C[C@H]5C)nc4)cc3OC(F)(F)F)cc2)c[nH]1)C(C)C` [Example 27-3] was tested, and the “Genotype 1b” value [1] was “D (D represents pEC50>10 (EC50<0.1 nM))” and the “Genotype 1a” value [2] was “D (D represents pEC50>10 (EC50<0.1 nM))”.

For `COC(=O)N[C@H](C(=O)N1C[C@@H](C)C[C@H]1c1nc(-c2ccc(-c3cc(F)c(NC(=O)c4ccc(N5CCN(C(=O)C(C)(C)C)C[C@H]5C)nc4)cc3OC(F)(F)F)cc2)c[nH]1)C(C)(C)O` [Example 13-24], the EC50 [1] was less than 0.1 nM and the EC50 [2] was less than 0.1 nM.
